The results in this text go back to patent US10202385B2, “Use of substituted 2,3-dihydroimidazo[1,2-C]quinazolines” (BAYER INTELLECTUAL PROPERTY GMBH, priority 2011, dated 2019).

Structures can show the parent of a compound that is named as a salt.

What all share (format): cell-based
Test [1] deals with T47D cells. Nature of the test: Apoptosis induction (PARP cleavage, Caspase-Glo 3/7) in T47D cells. The method, then:
(§1) Tumor cells were seeded in 384-well plates at a concentration of 1000-2500 cells/well/25 μL depending on cell lines. After overnight incubation, cells were treated with compounds (5 μL). Then, Caspase 3/7 activities were determined at 24 to 48 hours post-treatment using Caspase-Glo3/7 assay kits (Promega Cat # G8212).
The combination effects of PI3K inhibitors and other agent were evaluated using combination index isobologram analysis (Chou et al. Pharmacology Reviews 2006). The efficacy parameters were the median effect in a 72-hour cell proliferation assay and the 24- or 48-hour Caspase 3/7 activity assay described above. Briefly, cells were plated in 384-well plate with 25 μl medium. […] The corresponding component doses of D1 and D2 at the E(I)C50/E(I)C90 were calculated and used for plotting isobolograms. The multiple drug effect was analyzed as described by Chou et al. (Pharmacology Reviews 2006) and the combination index was calculated using the formula: Combination Index=[D1x]/D1′+[D2x]/D2′ where D1x and D2x refer to the Drug 1 and Drug 2 concentration at EC50/IC50 or EC90/IC90, respectively, in combination; and D1′ and D2′ refer to the EC50/IC50 or EC90/IC90 values of D1 and D2, respectively, as single agents. […]

Test [2] relates to MDA-MB-468 tumor cells. Nature of the test: Apoptosis induction (PARP cleavage) in MDA-MB-468 cells. The conditions noted are these: PTEN null, EGFR high, Bcl-2 negative MDA-MB-468. Here is the method:
as §1
The cellular expression of the mTORC2 component Rictor was assessed by western blot analysis (A). Induction of PARP cleavage by compound A treatment in combination with inhibition of mTORC1 or mTORC2 (B). shControl and shRictor MDA-MB468 cells were treated with indicated agents for 48 hours, and cleavage of PARP was analyzed. GAPDH was used as an internal protein control.

In test [3] the test system is MDA-MB-468 tumor cells. Put plainly: Tumor cell proliferation assay in MDA-MB-468 cells. The conditions noted are these: PTEN null, EGFR high, Bcl-2 negative MDA-MB-468. Here is the method:
In accordance with the invention, the compound were assessed in a cell-based assay that measures the capacity of the compounds to inhibit tumor cell proliferation following a 72-hour drug exposure. Cell viability was conducted by Invitrogen (breast Oncopanel, Invitrogen, USA), or was determined using CellTiter-Glo® Luminescent Cell Viability Assay (Promega) as follows. Cells were plated at 300-5000 cells/well depending on the cell lines or microtiter plates (96- or 384-well) in 100 μL growth medium in 96-well and 20 μL growth medium in 384-well microtiterplate. For each cell line assayed, cells were plated onto a separate plate for determination of luminescence at t=0 hour and t=72 hour time points. Following overnight incubation at 37° C., luminescence values for the t=0 samples were determined. […] Luminescence values for the t=72 hour samples were determined. For data analysis, briefly, t=0 values were subtracted from those determined for the t=72 hour time points, for both the treated and untreated samples. Percent differences in luminescence between drug-treated and control values were used to determine the percent inhibition of growth.
The combination effects of PI3K inhibitors and other agent were evaluated using combination index isobologram analysis (Chou et al. Pharmacology Reviews 2006). […]

Test [4] deals with breast tumor cell lines. Nature of the test: 72-hour tumor cell proliferation assay, molecular profiling in 24 breast tumor cell lines. The method, then: (§2) In accordance with the invention, the compound were assessed in a cell-based assay that measures the capacity of the compounds to inhibit tumor cell proliferation following a 72-hour drug exposure. Cell viability was conducted by Invitrogen (breast Oncopanel, Invitrogen, USA), or was determined using CellTiter-Glo® Luminescent Cell Viability Assay (Promega) as follows. Cells were plated at 300-5000 cells/well depending on the cell lines or microtiter plates (96- or 384-well) in 100 μL growth medium in 96-well and 20 μL growth medium in 384-well microtiterplate. For each cell line assayed, cells were plated onto a separate plate for determination of luminescence at t=0 hour and t=72 hour time points. Following overnight incubation at 37° C., luminescence values for the t=0 samples were determined. Dose plates for the t=72 hour time points were treated with compounds diluted into growth medium. Cells were then incubated for 72 hours at 37° C. Luminescence values for the t=72 hour samples were determined. For data analysis, briefly, t=0 values were subtracted from those determined for the t=72 hour time points, for both the treated and untreated samples. Percent differences in luminescence between drug-treated and control values were used to determine the percent inhibition of growth.
Using a set of breast cancer cell lines representing differential receptor expression status and genetic alterations of PIK3CA and PTEN, the anti-proliferative and apoptotic effects of Compound A were investigated.

For test [5], the system named is T47D cells. Put plainly: 72-hour tumor cell proliferation assay in T47D cells. The conditions noted are these: T47D (PIK3CA mut). Here is the method:
as §2, with “growth. […]” for “growth.”

The subject of test [6] is breast tumor cells (BT-20, BT-474, KPL-4). Nature of the test: Apoptosis induction (PARP cleavage, Caspase 3/7) in breast tumor cells. The method, then:
as §1

For `CN(C)CC[C@H](CSc1ccccc1)Nc1ccc(S(=O)(=O)NC(=O)c2ccc(N3CCN(Cc4ccccc4-c4ccc(Cl)cc4)CC3)cc2)cc1[N+](=O)[O-]` [ABT-737, reference compound], the “sensitization to apoptosis in combination with Compound A” value in test [1] (T47D cells, ABT-737 combined with Compound A) was “sensitized T47D cells to apoptosis”.

Broadly, the IC50 is the concentration at which inhibition is half-maximal. A higher IC50 goes with lower potency. For the compound `COc1c(OCCCN2CCOCC2)ccc2c1N=C(NC(=O)c1cnc(N)nc1)N1CCN=C21` [Compound A, 2-amino-N-[7-methoxy-8-(3-morpholin-4-ylpropoxy)-2,3-dihydroimidazo[1,2-c]quinazolin-5-yl]pyrimidine-5-carboxamide dihydrochloride], in test [2], the induction of apoptosis result is reported as “resistant”. For the same compound, in test [3], the inhibition of proliferation result is recorded as “insensitive”. In addition, the IC50 in test [4] (breast tumor cells with HER2 expression, n=8 cell lines, proliferation) is 19 nM; in test [4] (breast tumor cells with PIK3CA mutation, n=7 cell lines, proliferation), 17 nM; in test [4] (wild type PIK3CA and HER2 negative breast cancer cells, n=12, proliferation) it was 773 nM. Further, the apoptosis induction result is reported as “resistant to apoptosis” in test [1] (T47D (PIK3CA mut), high level of Bcl-2); “strong activity” in test [6] (PIK3CA mutant and or HER2 positive breast tumor cells (such as BT20, BT474)). The “anti-proliferative activity IC50” value in test [5] was “single-digit”. Further, the inducing apoptosis entry in test [6] (breast cancer cells expressing HER2 and/or PIK3CA mutation in the absence of Bcl-2 (conclusion)) is reported as “extremely effective”. In addition, in test [6] (tumor cells that lack Bcl-2 expression (KPL-4, BT-474, BT-20)), the apoptosis after exposure result is on record as “immediately underwent apoptosis”.
